The values below come from patent publication US12018048B2, “Anthelmintic depsipeptide compounds” (BOEHRINGER INGELHEIM ANIMAL HEALTH USA INC., priority 2015, dated 2024).

In brackets after ≈: the same amount, converted by molar mass. Like-named read-outs stand apart in the source and are kept apart here. A value given as a limit tells only on which side of the number the result lay.

Series [1] relates to Haemonchus contortus L1 larvae. The experiment in a line: Screening method to test activity against Haemonchus contortus (L1 larval development, microtitre plate). The note with it: 96 h; for MIC90: read-out: median MIC90 value; for EC50: read-out: median EC50 value.
Protocol: METHOD A: Screening method to test activity of compounds against Haemonchus contortus.
Twenty L1 Haemonchus contortus larvae were added to wells of a microtitre plate containing a nutrient medium and the test compound in DMSO. An analysis was conducted at 4 days to determine the extent of development of the larvae. Larvae exposed to DMSO alone served as controls.
The EC50 and MIC90 recordings were obtained using different instruments.
For series [2] the following is noted: amide bond, 24-membered ring.
Series [3] concerns microfilaria of Dirofilaria immitis. The experiment in a line: Screening method to test activity against microfilaria of Dirofilaria immitis (survival, microtitre plate). The format is cell-based. The note with it: 72 h, read-out: median EC50 value.

By MIC90 is commonly meant the lowest concentration that inhibits either 90% of growth or 90% of the strains tested, depending on the study. Broadly, the EC50 is the concentration giving half of the maximal effect. Consider `CC(C)C[C@H]1C(=O)O[C@H](C)C(=O)N(C)[C@@H](CC2CC2)C(=O)O[C@H](Cc2ccc(N3CCOCC3)cc2)C(=O)N(C)[C@@H](CC(C)C)C(=O)O[C@H](C)C(=O)N(C)[C@@H](CC2CC2)C(=O)O[C@H](Cc2ccc(N3CCOCC3)cc2)C(=O)N1C` [Compound 6-7A, (3S,6R,9S,12R,15S,18R,21S,24R)-3,15-bis(cyclopropylmethyl)-4,6,10,16,18,22-hexamethyl-9,21-bis(2-methylpropyl)-12,24-bis([[4-(morpholin-4-yl)phenyl]methyl])-1,7,13,19-tetraoxa-4,10,16,22-tetraazacyclotetracosan-2,5,8,11,14,17,20,23-octone], for which the MIC90 in series [1] was in the range of 0.1 to 1 µM (≈ 0.112 to 1.12 µg/mL). The molecule also showed a ring closure, yield after HPLC in series [2] (from H-MeAla(cyclopropyl)-dPhLac(4-morpholino)-MeLeu-dLac-MeAla(cyclopropyl)-dPhLac(4-morpholino)-MeLeu-dLac-OH, BOP-Cl/DIEA, DCM, 3.2 mM) of 8%. Further, the EC50 in series [3] was 100 to 1000 nM.

Take `C[C@H]1OC(=O)[C@H](CC2CC2)N(C)C(=O)[C@@H](Cc2ccc(N3CCOCC3)cc2)OC(=O)[C@H](CC2CC2)N(C)C(=O)[C@@H](C)OC(=O)[C@H](CC2CC2)N(C)C(=O)[C@@H](Cc2ccc(N3CCOCC3)cc2)OC(=O)[C@H](CC2CC2)N(C)C1=O` [Compound 6-1A, (3S,6R,9S,12R,15S,18R,21S,24R)-3,9,15,21-tetrakis(cyclopropylmethyl)-4,10,12,16,22,24-hexamethyl-6,18-bis([[4-(morpholin-4-yl)phenyl]methyl])-1,7,13,19-tetraoxa-4,10,16,22-tetraazacyclotetracosan-2,5,8,11,14,17,20,23-octone]: in series [1], the MIC90 was in the range of 1 to 10 µM (≈ 1.11 to 11.1 µg/mL). In series [2] (from H-MeAla(cyclopropyl)-dPhLac(4-morpholino)-MeAla(cyclopropyl)-dLac-MeAla(cyclopropyl)-dPhLac(4-morpholino)-MeAla(cyclopropyl)-dLac-OH, BOP-Cl/DIEA, DCM, 1.5 mM), this molecule showed a ring closure, yield after HPLC of 13%. For the same molecule, in series [3], the EC50 fell in the range of 100 to 1000 nM.

Regarding `C[C@H]1OC(=O)[C@H](CC2CC2)N(C)C(=O)[C@@H](Cc2ccc(C3CCOCC3)cc2)OC(=O)[C@H](CC(C)(C)F)N(C)C(=O)[C@@H](C)OC(=O)[C@H](CC2CC2)N(C)C(=O)[C@@H](Cc2ccc(C3CCOCC3)cc2)OC(=O)[C@H](CC(C)(C)F)N(C)C1=O` [Compound 7-34A, (3S,6R,9S,12R,15S,18R,21S,24R)-3,15-bis(cyclopropylmethyl)-9,21-bis(2-fluoro-2-methylpropyl)-4,-10,12,16,22,24-hexamethyl-6,18-bis([[4-(oxan-4-yl)phenyl]methyl])-1,7,13,19-tetraoxa-4,10,16,22-te-traazacyclotetracosan-2,5,8,11,14,17,20,23-octone], the EC50 in series [1] and in series [3] was less than 100 nM throughout. The MIC90 in series [1] is less than 0.1 µM. In series [2] (from H-MeLeu(4-F)-dPhLac(4-oxan-4-yl)-MeAla(3-cyclopropyl)-dLac-MeLeu(4-F)-dPhLac(4-oxan-4-yl)-MeAla(3-cyclopropyl)-dLac-OH, BOP-Cl/DIEA, DCM, 2.75 mM), this molecule came in with a ring closure, yield after HPLC of 14%.

Regarding `C[C@H]1OC(=O)C2(CC2)N(C)C(=O)[C@@H](Cc2ccc(C3CCOCC3)cc2)OC(=O)[C@H](CC(C)(C)F)N(C)C(=O)[C@@H](C)OC(=O)C2(CC2)N(C)C(=O)[C@@H](Cc2ccc(C3CCOCC3)cc2)OC(=O)[C@H](CC(C)(C)F)N(C)C1=O` [Compound 969-34A, (6R,9S,12R,20R,23S,26R)-9,23-bis(2-fluoro-2-methylpropyl)-4,10,12,18,24,26-hexamethyl-6,20-bis([[4-(oxan-4-yl)phenyl]methyl])-7,13,21,27-tetraoxa-4,10,18,24-tetraazadispiro[2.11.2^[15].11^[3]]octacosan-5,8,11,14,19,22,25,28-octone], the EC50 in series [1] and in series [3] was 1000 to 10000 nM each time. For the same molecule, the ring closure, yield after HPLC in series [2] (from H-MeAcc(1-aminocyclopropanecarboxylic)-dLac-MeLeu(4-F)-dPhLac(4-oxan-4-yl)-MeAcc(1-aminocyclopropanecarboxylic)-dLac-MeLeu(4-F)-dPhLac(4-oxan-4-yl)-OH, BOP-Cl/DIEA, DCM, 3.2 mM) was 29%.

For the molecule `CC(C)C[C@H]1C(=O)O[C@H](C)C(=O)N(C)[C@@H](CC2CC2)C(=O)O[C@H](Cc2ccc(N3CCOCC3)nc2)C(=O)N(C)[C@@H](CC(C)C)C(=O)O[C@H](C)C(=O)N(C)[C@@H](CC2CC2)C(=O)O[C@H](Cc2ccc(N3CCOCC3)nc2)C(=O)N1C` [Compound 9-7A, (3S,6R,9S,12R,15S,18R,21S,24R)-3,15-bis(cyclopropylmethyl)-4,6,10,16,18,22-hexamethyl-9,21-bis(2-methylpropyl)-12,24-bis([[6-(morpholin-4-yl)pyridin-3-yl]methyl])-1,7,13,19-tetraoxa-4,10,16,22-tetraazacyclotetracosan-2,5,8,11,14,17,20,23-octone], the ring closure, yield after HPLC in series [2] (from H-MeAla(cyclopropyl)-dLac(3-[6-(morpholin-4-yl)pyridin-3-yl])-MeLeu-dLac-MeAla(cyclopropyl)-dLac(3-[6-(morpholin-4-yl)pyridin-3-yl])-MeLeu-dLac-OH?, BOP-Cl/DIEA, DCM, 4.2 mM) is 12%. Further, the concentration giving a half-maximal response (EC50) in series [3] is 1000 to 10000 nM.

Molecule “(3S,6R,9S,12R,15S,18R,21S,24R)-3,15-bis(cyclopropylmethyl)-9,21-bis(2-fluoro-2-methylpropyl)-4,10,12,16,22,24-hexamethyl-6,18-bis([[4-(morpholin-4-yl)phenyl]methyl])-1,7,13,19-tetraoxa-4,10,16,22-tetraazacyclotetracosan-2,5,8,11,14,17,20,23-octone” displayed a ring closure, yield after HPLC in series [2] (DIEA) of 24%.

As to `CC(C)C[C@H]1C(=O)O[C@H](C)C(=O)N(C)[C@@H](CC(C)(C)F)C(=O)O[C@H](Cc2ccc(C3CCOCC3)cc2)C(=O)N(C)C2(CC2)C(=O)O[C@H](C)C(=O)N(C)[C@@H](CC(C)(C)F)C(=O)O[C@H](Cc2ccc(C3CCOCC3)cc2)C(=O)N1C`, in series [2] (from H-MeAcc(1-aminocyclopropanecarboxylic)-dLac-MeLeu(4-F)-dPhLac(4-oxan-4-yl)-MeLeu-dLac-MeLeu(4-F)-dPhLac(4-oxan-4-yl)-OH, BOP-Cl/DIEA, DCM, 0.87 mM), the ring closure, yield after HPLC came to 39%.

Molecule `CN1C(=O)COC(=O)[C@H](CC2CC2)N(C)C(=O)[C@@H](Cc2ccc(C3CCOCC3)cc2)OC(=O)[C@H](CC(C)(C)F)N(C)C(=O)COC(=O)[C@H](CC2CC2)N(C)C(=O)[C@@H](Cc2ccc(C3CCOCC3)cc2)OC(=O)[C@@H]1CC(C)(C)F` registered a ring closure, yield after HPLC in series [2] (from H-MeLeu(4-F)-dPhLac(4-oxan-4-yl)-MeAla(3-cyclopropyl)-Glycolic-MeLeu(4-F)-dPhLac(4-oxan-4-yl)-MeAla(3-cyclopropyl)-Glycolic-OH, BOP-Cl/DIEA, DCM, 2.57 mM) of 33%.
